In patent US12343326B2, “Psychoactive medicines and their use for treating psychiatric and neurological conditions and disorders” (Transcend Therapeutics, Inc., priority 2021, dated 2025):
Read-outs that look alike come from different tables or passages of the source.

Key:
mice = details: MDMA 7.5 mg/kg 30 minutes prior to extinction training (Young et al. 2015); cited from earlier work
[1] = tested on: myelin basic protein (MBP); assay: Immunohistochemistry of myelin basic protein; assay type: in vivo, rat; details: 10 mg/kg IP, 24 h
Experimental: Immunohistochemistry: The in-life portion of the study was conducted at WuXi Apptec (Cranbury, NJ). Sectioning and staining of brains took place at Neuroscience Associates (NSA, Knoxville, TN). […] Brains were post-fixed in PFA before shipment to NSA for processing and staining. Hemisected brains were mounted, sectioned and stained using standard protocols with myelin-basic protein primary antibody (MBP SMI-99, 1:5000, Biolegend, San Diego, CA) and anti-mouse biotinylated secondary antibody (BA-2001, Vector Laboratories, Newark, CA). Slides were imaged using a Huron Digital Pathology TissueScope LE120 whole slide scanning system. 20× objective was used with a 0.4 μm/pixel resolution.

5HT2A receptor = molecular target: T1, 5HT2A receptor (Homo sapiens, UniProt P28223); assay: GPCRmax screen, agonist mode; assay type: cell-based; details: 1 or 10 mM; threshold 30%
T1 construct: beta-galactosidase enzyme fragment (PathHunter complementation tag); host or cells: PathHunter cell lines

[2] = tested on: rats (Sprague Dawley; Flinders Sensitive Line); details: cited from earlier work
[3] = retrospective reports / meta-analysis of overdose deaths; cited from earlier work
5HT2C receptor [4] = molecular target: T2, 5HT2C receptor (Homo sapiens, UniProt P28335); assay: GPCRmax screen, antagonist mode; assay type: cell-based; details: 1 or 10 mM; threshold 50%
T2 construct: beta-galactosidase enzyme fragment (PathHunter complementation tag); host or cells: PathHunter cell lines

[5] = tested on: gene expression in amygdala, frontal cortex, hippocampus; assay: RNA-sequencing of brain areas after a single dose; assay type: in vivo, rat
5HT2C receptor [6] = molecular target: T2, 5HT2C receptor; assay: GPCRmax screen, agonist mode; assay type: cell-based; details: 1 or 10 mM; threshold 30%

T2 sequence (P28335 33-458): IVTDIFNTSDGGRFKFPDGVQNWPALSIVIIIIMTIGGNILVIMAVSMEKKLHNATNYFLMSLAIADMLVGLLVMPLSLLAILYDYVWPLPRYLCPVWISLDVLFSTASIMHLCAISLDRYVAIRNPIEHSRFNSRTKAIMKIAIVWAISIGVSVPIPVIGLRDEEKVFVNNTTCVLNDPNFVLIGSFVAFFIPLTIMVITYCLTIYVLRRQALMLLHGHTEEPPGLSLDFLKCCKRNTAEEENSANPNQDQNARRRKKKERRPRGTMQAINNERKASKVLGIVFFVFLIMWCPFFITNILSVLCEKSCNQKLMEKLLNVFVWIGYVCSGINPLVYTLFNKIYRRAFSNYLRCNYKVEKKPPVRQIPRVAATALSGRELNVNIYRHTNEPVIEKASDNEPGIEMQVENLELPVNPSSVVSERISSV
T1 sequence (P28223 whole entry, the tested form may be a part): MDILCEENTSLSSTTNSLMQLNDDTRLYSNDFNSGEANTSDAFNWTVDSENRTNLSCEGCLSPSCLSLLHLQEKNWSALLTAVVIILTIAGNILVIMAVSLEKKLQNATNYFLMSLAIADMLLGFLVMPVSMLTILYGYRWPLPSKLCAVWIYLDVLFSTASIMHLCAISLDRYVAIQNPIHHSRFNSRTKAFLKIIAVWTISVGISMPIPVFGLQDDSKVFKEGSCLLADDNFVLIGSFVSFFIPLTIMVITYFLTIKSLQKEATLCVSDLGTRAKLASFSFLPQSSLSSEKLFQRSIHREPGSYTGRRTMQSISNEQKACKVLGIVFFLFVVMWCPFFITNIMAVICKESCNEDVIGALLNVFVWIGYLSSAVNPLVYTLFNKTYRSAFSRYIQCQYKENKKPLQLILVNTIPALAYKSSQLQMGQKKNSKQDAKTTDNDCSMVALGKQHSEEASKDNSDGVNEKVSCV

CNC(C)Cc1ccc2c(c1)OCO2 (racemic) [MDMA, 3,4-Methylenedioxymethamphetamine]
reduced freezing vs. saline (extinction recall) (mice): 35% | MBP expression, basolateral nucleus of the amygdala, vs. vehicle [1]: significant reduction in MBP | MBP expression, central nucleus of the amygdala, vs. vehicle [1]: significant reduction in MBP | MBP expression, cortex (control region) [1]: No change in MBP | agonist % activity (5HT2A receptor): 27.5% | reduction in immobility (FST) ([2]; MDMA 5 mg/kg, Flinders Sensitive Line rats): 45% | reduction in immobility (FST) ([2]; MDMA 5 mg/kg, Sprague Dawley rats (Majumder et al. 2011)): 45% | reduction in immobility (FST) ([2]; MDMA 10 mg/kg, Flinders Sensitive Line rats): 93% | reduction in immobility (FST) ([2]; MDMA 10 mg/kg, Sprague Dawley rats (Majumder et al. 2011)): 78% | blood concentration in overdose deaths [3]: 478 to 53900 ng/mL | antagonist activity (% inhibition) (5HT2C receptor [4]): 52.2% | more genes regulated than methylone, frontal cortex ([5]; 10 mg/kg IP): ~72% | genes regulated by MDMA that are also regulated by methylone, amygdala ([5]; 10 mg/kg IP each): 7% | agonist % activity (5HT2C receptor [6]): 28.0%
